Holding throughout (type): functional, cell-based
One experiment concerns P388. As to the kind of experiment: Cytotoxicity against mouse P388 cells assessed as reduction in cell viability by SRB assay.
Another experiment has as its system KB. As to the kind of experiment: Cytotoxicity against human KB cells assessed as reduction in cell viability by SRB assay. (In general: Sulforhodamine B stains cellular protein and so reports cell mass.)
In the next experiment the test system is HT-29. As to the kind of experiment: Cytotoxicity against human HT-29 cells assessed as reduction in cell viability by SRB assay.
The test system of a further experiment is MCF7. As to the kind of experiment: Cytotoxicity against human MCF7 cells assessed as reduction in cell viability by SRB assay.
The test system of the next experiment is A549. As to the kind of experiment: Cytotoxicity against human A549 cells assessed as reduction in cell viability by SRB assay.
A short description of experiment [1]: Cytotoxicity against rat ASK cells assessed as reduction in cell viability by SRB assay.

The term IC50 denotes the concentration that inhibits the measured activity by half. With `CC(=O)O[C@@H]1CC[C@]2(C)[C@H](CC[C@]3(CNc4ccc(Br)cc4)O[C@H](C4=CCOC4=O)C[C@H]32)[C@]1(C)CO[Si](C)(C)C(C)(C)C`, the IC50 was determined as 6.39 µM in the experiment on P388; 25.7 µM with KB; 27.7 µM in the experiment with HT-29; 12.9 µM in the experiment with MCF7; 15 µM in the experiment with A549; 7.35 µM in experiment [1].
As for `COc1ccc(NC[C@]23CC[C@@H]4[C@](C)(CO[Si](c5ccccc5)(c5ccccc5)C(C)(C)C)[C@H](OC(C)=O)CC[C@@]4(C)[C@@H]2C[C@@H](C2=CCOC2=O)O3)cc1OC`, the IC50 with P388 was 27.5 µM; with KB it was > 50 µM; in the experiment on HT-29, > 50 µM; in the experiment with MCF7 it was 35.8 µM; with A549, 48.6 µM; in experiment [1], 9.37 µM.
With `COc1ccc(NC[C@]23CC[C@@H]4[C@](C)(COC(c5ccccc5)(c5ccccc5)c5ccccc5)[C@H](OC(C)=O)CC[C@@]4(C)[C@@H]2C[C@@H](C2=CCOC2=O)O3)cc1OC`, the IC50 was 30.5 µM in the experiment on P388; > 50 µM with KB; > 50 µM in the experiment with HT-29; 23.1 µM with MCF7; > 50 µM in the experiment on A549; 6.51 µM in experiment [1].
Turning to `COc1ccc(NC[C@]23CC[C@@H]4[C@](C)(CO[Si](C(C)C)(C(C)C)C(C)C)[C@H](OC(C)=O)CC[C@@]4(C)[C@@H]2C[C@@H](C2=CCOC2=O)O3)cc1OC`, the IC50 turned out to be 4.98 µM in the experiment on P388; 17.9 µM in the experiment on KB; 5.24 µM with HT-29; 4.7 µM in the experiment on MCF7; 6.08 µM in the experiment with A549; 4.61 µM in experiment [1].
As for `CC(=O)OC[C@@]1(C)[C@H]2CC[C@]3(CNc4ccccc4F)O[C@H](C4=CCOC4=O)C[C@H]3[C@]2(C)CC[C@H]1OC(C)=O`, the half-inhibitory concentration (IC50) in the experiment on P388 was found to be 7.5 µM; in the experiment with KB it was 26.5 µM; with HT-29, 6.5 µM; with MCF7, 11.8 µM; with A549, 8.45 µM; in experiment [1], 27.8 µM.
Consider `CC(=O)O[C@@H]1CC[C@]2(C)[C@H](CC[C@]3(CNc4ccccc4)O[C@H](C4=CCOC4=O)C[C@H]32)[C@]1(C)CO[Si](C)(C)C(C)(C)C`, for which the half-inhibitory concentration (IC50) in the experiment on P388 is 5.19 µM; with KB it was 21.2 µM; with HT-29, 8.5 µM; in the experiment on MCF7, 5.44 µM; in the experiment with A549, 7.8 µM; in experiment [1], 5.94 µM.
With `CC(=O)O[C@@H]1CC[C@]2(C)[C@H](CC[C@]3(CNc4ccc(Br)cc4)O[C@H](C4=CCOC4=O)C[C@H]32)[C@]1(C)COC(c1ccccc1)(c1ccccc1)c1ccccc1`, the IC50 (in the experiment with P388; with KB; with HT-29; in the experiment with MCF7; in the experiment on A549; in experiment [1]) was > 50 µM throughout.
As for `CC(=O)O[C@@H]1CC[C@]2(C)[C@H](CC[C@]3(CNc4ccccc4)O[C@H](C4=CCOC4=O)C[C@H]32)[C@]1(C)COC(c1ccccc1)(c1ccccc1)c1ccccc1`, the 50% inhibitory concentration (IC50) with P388 is > 50 µM; in the experiment with KB it was > 50 µM; in the experiment with HT-29, > 50 µM; in the experiment with MCF7, > 50 µM; with A549, > 50 µM; in experiment [1], 29.1 µM.
As for `CC(=O)O[C@@H]1CC[C@]2(C)[C@H](CC[C@]3(CNc4ccccc4F)O[C@H](C4=CCOC4=O)C[C@H]32)[C@]1(C)COC(c1ccccc1)(c1ccccc1)c1ccccc1`, the IC50 (in the experiment on P388; in the experiment with KB; with HT-29; in the experiment on MCF7; in the experiment with A549; in experiment [1]) was > 50 µM throughout.
`CC(=O)O[C@@H]1CC[C@]2(C)[C@H](CC[C@]3(CNc4ccc(Br)cc4)O[C@H](C4=CCOC4=O)C[C@H]32)[C@]1(C)CO[Si](c1ccccc1)(c1ccccc1)C(C)(C)C`: the IC50 in the experiment with P388 was 48.3 µM; in the experiment on KB, > 50 µM; in the experiment on HT-29, > 50 µM; in the experiment on MCF7, > 50 µM; in the experiment on A549 it was 47.8 µM; in experiment [1], > 50 µM.
In the case of `CC(=O)O[C@@H]1CC[C@]2(C)[C@H](CC[C@]3(CNc4cccc(F)c4)O[C@H](C4=CCOC4=O)C[C@H]32)[C@]1(C)CO[Si](C(C)C)(C(C)C)C(C)C`, the IC50 in the experiment on P388 is 7.95 µM; with KB, 32.9 µM; with HT-29 it was 30.1 µM; in the experiment with MCF7, 12.7 µM; with A549, 24.5 µM; in experiment [1], 6.91 µM.
As for `CC(=O)O[C@@H]1CC[C@]2(C)[C@H](CC[C@]3(CNc4cccc(F)c4)O[C@H](C4=CCOC4=O)C[C@H]32)[C@]1(C)CO[Si](C)(C)C(C)(C)C`, the IC50 came out at 6.44 µM in the experiment on P388; 27.4 µM in the experiment with KB; 26.2 µM in the experiment with HT-29; 8.64 µM in the experiment with MCF7; 21.5 µM in the experiment with A549; 6.1 µM in experiment [1].
With `Cc1c2ccncc2c(C)c2c1[nH]c1ccccc12` [ELLIPTECINE], the half-inhibitory concentration (IC50) stood at 1.34 µM in the experiment on P388; 1.87 µM in the experiment with KB; 2.06 µM with HT-29; 1.53 µM with MCF7; 1.2 µM in the experiment on A549; 2.17 µM in experiment [1].
For the compound `CC(=O)O[C@@H]1CC[C@]2(C)[C@H](CC[C@]3(CNc4ccccc4F)O[C@H](C4=CCOC4=O)C[C@H]32)[C@]1(C)CO[Si](c1ccccc1)(c1ccccc1)C(C)(C)C`, the IC50 was > 50 µM in the experiment with P388; > 50 µM in the experiment with KB; > 50 µM in the experiment on HT-29; > 50 µM in the experiment with MCF7; > 50 µM in the experiment on A549; 39.7 µM in experiment [1].
For `CC(=O)O[C@@H]1CC[C@]2(C)[C@H](CC[C@]3(CNc4ccccc4F)O[C@H](C4=CCOC4=O)C[C@H]32)[C@]1(C)CO[Si](C)(C)C(C)(C)C`, the IC50 in the experiment with P388 stood at 4.56 µM; with KB it was 6.49 µM; in the experiment with HT-29, 5.59 µM; in the experiment on MCF7, 4.45 µM; with A549 it was 6.1 µM; in experiment [1], 3.33 µM.
Turning to `CC(=O)O[C@@H]1CC[C@]2(C)[C@H](CC[C@]3(CNc4ccccc4)O[C@H](C4=CCOC4=O)C[C@H]32)[C@]1(C)CO[Si](C(C)C)(C(C)C)C(C)C`, the IC50 in the experiment with P388 amounted to 6.54 µM; in the experiment with KB it was 18.8 µM; in the experiment with HT-29, 17.5 µM; in the experiment with MCF7 it was 8.33 µM; in the experiment on A549, 9.43 µM; in experiment [1], 6.1 µM.
As for `CC(=O)O[C@@H]1CC[C@]2(C)[C@H](CC[C@]3(CNc4ccccc4)O[C@H](C4=CCOC4=O)C[C@H]32)[C@]1(C)CO[Si](c1ccccc1)(c1ccccc1)C(C)(C)C`, the half-maximal inhibitory concentration (IC50) in the experiment with P388 is 45.3 µM; in the experiment on KB, > 50 µM; in the experiment on HT-29, > 50 µM; in the experiment on MCF7, > 50 µM; in the experiment on A549, > 50 µM; in experiment [1], 9.32 µM.
Consider `COc1ccc(NC[C@]23CC[C@@H]4[C@](C)(COC(C)=O)[C@H](OC(C)=O)CC[C@@]4(C)[C@@H]2C[C@@H](C2=CCOC2=O)O3)cc1OC`, for which the IC50 is 28.8 µM in the experiment on P388; > 50 µM in the experiment with KB; 24.1 µM in the experiment on HT-29; > 50 µM in the experiment with MCF7; > 50 µM in the experiment on A549; > 50 µM in experiment [1].
As to `CC(=O)OC[C@@]1(C)[C@H]2CC[C@]3(CNc4ccccc4)O[C@H](C4=CCOC4=O)C[C@H]3[C@]2(C)CC[C@H]1OC(C)=O`, the IC50 with P388 was 40 µM; in the experiment with KB it was > 50 µM; with HT-29, 25.7 µM; in the experiment with MCF7, > 50 µM; in the experiment on A549, > 50 µM; in experiment [1] it was > 50 µM.
`COc1ccc(NC[C@]23CC[C@@H]4[C@](C)(CO[Si](C)(C)C(C)(C)C)[C@H](OC(C)=O)CC[C@@]4(C)[C@@H]2C[C@@H](C2=CCOC2=O)O3)cc1OC`: the IC50 was found to be 5.49 µM in the experiment on P388; 11.5 µM with KB; 6.16 µM in the experiment on HT-29; 5.4 µM in the experiment with MCF7; 5.3 µM in the experiment with A549; 5.13 µM in experiment [1].
`CC(=O)O[C@@H]1CC[C@]2(C)[C@H](CC[C@]3(CNc4ccc(Br)cc4)O[C@H](C4=CCOC4=O)C[C@H]32)[C@]1(C)CO[Si](C(C)C)(C(C)C)C(C)C`: the IC50 in the experiment on P388 is 40.5 µM; in the experiment on KB it was > 50 µM; with HT-29, > 50 µM; in the experiment with MCF7, > 50 µM; in the experiment with A549 it was > 50 µM; in experiment [1], 29.7 µM.
In the case of `C=C1CC[C@@H]2[C@](C)(CO)[C@H](O)CC[C@@]2(C)[C@@H]1C/C=C1/C(=O)OC[C@H]1O` [ANDROGRAPHOLIDE], the IC50 in the experiment with P388 was determined as 2.25 µM; with KB, 27.4 µM; in the experiment on HT-29, 9.34 µM; in the experiment on MCF7, 15.4 µM; with A549, 27.9 µM; in experiment [1], 16.2 µM.
Take `CC(=O)OC[C@@]1(C)[C@H]2CC[C@]3(CNc4cccc(F)c4)O[C@H](C4=CCOC4=O)C[C@H]3[C@]2(C)CC[C@H]1OC(C)=O`: the 50% inhibitory concentration (IC50) in the experiment with P388 was determined as 6.85 µM; in the experiment with KB, 20.8 µM; in the experiment with HT-29, 5.87 µM; in the experiment with MCF7, 7.41 µM; in the experiment with A549, 6.52 µM; in experiment [1] it was 22.3 µM.
As for `CC(=O)O[C@@H]1CC[C@]2(C)[C@H](CC[C@]3(CNc4cccc(F)c4)O[C@H](C4=CCOC4=O)C[C@H]32)[C@]1(C)COC(c1ccccc1)(c1ccccc1)c1ccccc1`, the IC50 (with P388; with KB; in the experiment on HT-29; in the experiment on MCF7; in the experiment with A549; in experiment [1]) was > 50 µM in each case.
In the case of `CC(=O)OC[C@@]1(C)[C@H]2CC[C@]3(CNc4ccc(Br)cc4)O[C@H](C4=CCOC4=O)C[C@H]3[C@]2(C)CC[C@H]1OC(C)=O`, the IC50 in the experiment with P388 was 7.47 µM; with KB it was 21.1 µM; in the experiment on HT-29, 6.09 µM; in the experiment on MCF7, 6.93 µM; with A549, 6.14 µM; in experiment [1], 8.4 µM.
